Data reported in US7655671B2, “Morphinan derivatives, the quaternary ammonium salts thereof substituted in position 14, method for production and use thereof” (priority 2002, dated 2010).
Counter-ions that a name gives are not always drawn. Like-named read-outs stand apart in the source and are kept apart here.

How the values were obtained:
μ-opioid receptors = target: T1, μ-opioid receptors (Rattus norvegicus, UniProt P33535); assay: Opioid receptor binding studies on rat's brain homogenisates with [3H]DAMGO
T1 construct: from tissue; host or cells: rat brain homogenate

μ-receptors = target: T2, μ-receptors (Mus musculus, UniProt P42866); assay: Antagonistic activity in the vas deferens preparation of the mouse using DAMGO; assay type: biochemical; parameters: Ke (vM) (μ-receptors): unit not given here
T2 construct: Vas Deferens Preparation of the Mouse; from tissue; host or cells: mouse vas deferens

mice [1] = assay: Hot-plate test (analgesia); assay type: in vivo, mouse; details: for ED50 (μg/kg, sc) / ED50: subcutaneous application; for ED50: Mus musculus, read-out: ED50 (μg/kg, sc); for ED50 / analgesic activity (in words): sc
Experimental: A test on mice (“hot-plate test”) was carried out as described earlier (E. L. May et al., J. Med. Chem. 2000; 43, 5030-5036).

mice [2] = assay: animal or person; assay type: in vivo; details: mouse tail flick test; for ED50 (μg/kg, sc) / ED50: subcutaneous application; for analgesic activity (in words) / ED50: sc; for ED50: read-out: ED50 (μg/kg, sc)
rats = assay: Rat tail flick test (analgesia); assay type: in vivo; details: for ED50 (μg/rat, icv): rats of 120 g; for ED50: sc, read-out: ED50 (μg/kg, sc)
Experimental: To determine the analgesic activity of quaternised compounds, a test on rats, the “Rat Tail Flick Test”, was used. The test was carried out as described earlier (Zs. Fürst et al., Eur. J. Pharmacol. 1993; 236: 209-215).

[3] = [3H]DAMGO as radio-ligand, rat's brain homogenisates, read-out: Ki (nM) (μ-receptors)
[4] = rat tail flick test, subcutaneous application
[5] = rat tail flick test, intracerebroventricular application

T1 sequence (P33535 whole entry): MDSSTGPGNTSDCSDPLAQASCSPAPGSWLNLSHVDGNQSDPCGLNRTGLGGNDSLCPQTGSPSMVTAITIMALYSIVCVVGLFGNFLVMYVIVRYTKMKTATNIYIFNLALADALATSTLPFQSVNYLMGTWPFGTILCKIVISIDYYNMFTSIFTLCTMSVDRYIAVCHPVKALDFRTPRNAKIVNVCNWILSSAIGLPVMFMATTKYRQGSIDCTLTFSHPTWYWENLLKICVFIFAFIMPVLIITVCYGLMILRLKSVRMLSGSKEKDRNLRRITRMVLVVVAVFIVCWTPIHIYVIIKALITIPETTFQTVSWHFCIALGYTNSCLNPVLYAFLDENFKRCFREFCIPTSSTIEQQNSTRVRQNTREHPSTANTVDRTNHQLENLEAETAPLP
T2 sequence (P42866 whole entry): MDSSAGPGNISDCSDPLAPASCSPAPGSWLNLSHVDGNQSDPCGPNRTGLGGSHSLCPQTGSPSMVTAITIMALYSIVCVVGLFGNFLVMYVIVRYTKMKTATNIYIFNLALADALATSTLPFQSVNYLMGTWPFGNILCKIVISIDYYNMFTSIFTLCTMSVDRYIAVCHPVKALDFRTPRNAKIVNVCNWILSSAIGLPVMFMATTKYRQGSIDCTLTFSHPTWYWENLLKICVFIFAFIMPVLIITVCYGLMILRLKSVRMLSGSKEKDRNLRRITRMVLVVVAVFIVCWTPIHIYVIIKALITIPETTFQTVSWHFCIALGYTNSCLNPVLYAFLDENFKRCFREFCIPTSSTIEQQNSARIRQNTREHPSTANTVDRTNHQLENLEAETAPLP

Structure (SMILES): COc1c(O)ccc2c1[C@]13CCN(CC4CC4)[C@H](C2)[C@]1(OC)CCC(=O)C3 [3-hydroxycyprodime, reference compound]
- Ki (μ-opioid receptors; [3]): 6.15 nM
- affinity to μ-opioid receptors (in words) (μ-opioid receptors; [3H]DAMGO, rat's brain homogenisates): clearly lower affinity
- Ke (vM) (μ-receptors) (μ-receptors; antagonistic Ke against DAMGO): 5.62

Structure (SMILES): CO[C@@]12CCC(=O)[C@]3(C)Oc4c(O)ccc5c4[C@@]31CCN(C)[C@@H]2C5 [14-methoxymetopon, reference compound]
- Ki (μ-opioid receptors; [3]): 0.55 nM
- ED50 (μg/kg, sc) (mice [1]): 30 µg/kg
- ED50 (μg/kg, sc) (mice [2]): 30 µg/kg
- ED50 (μg/kg, sc) (rats; [4]): 7.2 µg/kg

Structure (SMILES): COc1ccc2c3c1O[C@H]1C(=O)CC[C@@]4(OCCCc5ccccc5)[C@@H](C2)N(CCc2ccccc2)CC[C@]314 [Compound 4, 4,5α-epoxy-3-methoxy-17-(2-phenylethyl)-14β-(3-phenylpropyloxy)morphinan-6-one hydrochloride]
- ED50 (mice [1]): 60 µg/kg
- analgesic activity (in words) (mice [1]): somewhat lower analgesic activity
- analgesic activity (in words) (mice [2]): somewhat lower analgesic activity
- ED50 (mice [2]): 84 µg/kg

Structure (SMILES): C=CCN1CC[C@]23c4c5ccc(O)c4O[C@H]2C(=O)CC[C@@]3(OCCCc2ccccc2)[C@H]1C5 [Compound 6, 17-allyl-4,5α-epoxy-3-hydroxy-14β-(3-phenylpropyloxy)morphinan-6-one hydrochloride]
- ED50 (mice [1]): 5.9 µg/kg
- ED50 (mice [2]): 5.6 µg/kg

Structure (SMILES): O=C1CC[C@@]2(OCCCc3ccccc3)[C@H]3Cc4ccc(O)c5c4[C@@]2(CCN3CC2CCC2)[C@H]1O5 [Compound 7, 17-cyclobutylmethyl-4,5α-epoxy-3-hydroxy-14β-(3-phenylpropyloxy)morphinan-6-one hydrochloride]
- ED50 (mice [1]): 3.7 µg/kg
- ED50 (mice [2]): 8.2 µg/kg

Structure (SMILES): O=C1CC[C@@]2(OCCCc3ccccc3)[C@H]3Cc4ccc(O)c5c4[C@@]2(CCN3CC2CC2)[C@H]1O5 [Compound 8, 17-cyclopropylmethyl-4,5α-epoxy-3-hydroxy-14β-(3-phenylpropyloxy)morphinan-6-one hydrochloride]
- Ki (μ-opioid receptors; [3]): 0.34 nM
- ED50 (mice [1]): 2.3 µg/kg
- ED50 (mice [2]): 3.2 µg/kg

Structure (SMILES): O=C1CC[C@@]2(OCCCc3ccccc3)[C@H]3Cc4ccc(O)c5c4[C@@]2(CCN3CCc2ccccc2)[C@H]1O5 [Compound 9, 4,5α-epoxy-3-hydroxy-17-(2-phenylethyl)-14β-(3-phenylpropyloxy)morphinan-6-one hydrochloride]
- ED50 (mice [1]): 11.7 µg/kg

Structure (SMILES): O=C1CC[C@@]2(OCCCc3ccccc3)C3Cc4ccc(O)c5c4[C@@]2(CCN3CC2CCCO2)[C@H]1O5 (stereo partly drawn) [Compound 10, 4,5α-epoxy-17-[2-((R,S)-tetrahydrofuran-2-yl)methyl]-3-hydroxy-14β-(3-phenylpropyloxy)morphinan-6-one hydrochloride]
- ED50 (mice [1]): 1.3 µg/kg
- ED50 (mice [2]): 7 µg/kg

Structure (SMILES): CCCN1CC[C@]23c4c5ccc(O)c4O[C@H]2C(=O)CC[C@@]3(OCCCc2ccccc2)[C@H]1C5 [Compound 11, 4,5α-epoxy-3-hydroxy-14β-(3-phenylpropyloxy)-17-propylmorphinan-6-one hydrochloride]
- ED50 (mice [1]): 1.7 µg/kg
- ED50 (mice [2]): 1.6 µg/kg

Structure (SMILES): C#CCOc1ccc2c3c1O[C@@]1(C)C(=O)CC[C@@]4(OCCCc5ccccc5)[C@@H](C2)N(C)CC[C@]314.Cl [Compound 17, 4,5α-epoxy-5β,17-dimethyl-14β-[(3-phenylpropyl)oxy]-3-[(prop-2-inyl)oxy]morphinan-6-one hydrochloride]
- Ki (μ-opioid receptors; [3]): 0.73 nM
- analgesic activity (in words) (mice [1]): surprisingly high
- ED50 (μg/kg, sc) (mice [1]): 38 µg/kg
- ED50 (μg/kg, sc) (mice [2]): 21 µg/kg

Structure (SMILES): COc1ccc2c3c1O[C@@]1(C)C(=O)CC[C@@]4(OCCCc5ccccc5)[C@@H](C2)N(C)CC[C@]314 [Compound 17a, 4,5α-epoxy-3-methoxy-5β,17-dimethyl-14β-[(3-phenylpropyl)oxy]morphinan-6-one]
- Ki (μ-opioid receptors): 0.62 nM
- ED50 (mice [1]): 2.6 µg/kg
- ED50 (mice [2]): 4.4 µg/kg
- melting point: 126 to 128 °C

Structure (SMILES): CN1CC[C@]23c4c5ccc(O)c4O[C@@]2(C)C(=O)CC[C@@]3(OCCCc2ccccc2)[C@H]1C5 [Compound 17b, 4,5α-epoxy-3-hydroxy-5β,17-dimethyl-14β-[(3-phenylpropyl)oxy]morphinan-6-one hydrobromide]
- Ki (μ-opioid receptors): 0.2 nM
- ED50 (mice [1]): 0.1 µg/kg

Structure (SMILES): COc1ccc2c(c1OC)[C@]13CCN(C)[C@H](C2)[C@]1(OCCCc1ccccc1)CCC(=O)[C@H]3C [Compound 32, 3,4-dimethoxy-5β,17-dimethyl-14β-[(3-phenylpropyl)oxy]morphinan-6-one hydrochloride]
- ED50 (mice [1]): 22 µg/kg
- analgesic activity (in words) (mice [1]): somewhat lower analgesic activity
- analgesic activity (in words) (mice [2]): very high analgesic activity
- ED50 (mice [2]): 14 µg/kg

Structure (SMILES): C[N+]1(C)CC[C@]23c4c5ccc(O)c4O[C@H]2C(=O)CC[C@@]3(OCCCc2ccccc2)[C@H]1C5.[I-] [Compound 38, 4,5α-epoxy-3-hydroxy-17,17-dimethyl-6-oxo-14β-[(3-phenylpropyl)oxy]morphinanium-iodide]
- Ki (μ-opioid receptors): 4.11 nM
- ED50 (μg/rat, icv) (rats; [5]): 12 μg/rat
- analgesic effect (in words) (rats; [4]): very high analgesic effect
- ED50 (rats; [4]): 120 µg/kg
- melting point: 164 to 170 °C

Structure (SMILES): C[N@+]1(CC2CCCO2)CC[C@]23c4c5ccc(O)c4OC2C(=O)CCC3(OCCCc2ccccc2)C1C5.[I-] (stereo partly drawn) [Compound 40, (17R)-4,5α-epoxy-3-hydroxy-17-methyl-6-oxo-14β-[(3-phenylpropyl)oxy]-17-[(2-R,S-tetrahydrofurfuran-2-yl)methyl]morphinanium-iodide]
- Ki (μ-opioid receptors): 0.37 nM
- melting point: 156 to 159 °C

Structure (SMILES): C=CC[N@@+]1(C)CC[C@]23c4c5ccc(O)c4O[C@H]2C(=O)CC[C@@]3(OCC)[C@H]1C5.[I-] [Compound 41, (17R)-17-allyl-4,5α-epoxy-14β-ethoxy-3-hydroxy-17-methyl-6-oxomorphinanium-iodide]
- Ki (μ-opioid receptors): 2.32 nM
- melting point: 130 to 134 °C

Structure (SMILES): C=CC[N@@+]1(C)CC[C@]23c4c5ccc(O)c4O[C@H]2C(=O)CC[C@@]3(OC)[C@H]1C5.[I-] [Compound 42, (17R)-17-allyl-4,5α-epoxy-3-hydroxy-14β-methoxy-17-methyl-6-oxomorphinanium-iodide]
- Ki (μ-opioid receptors): 5.93 nM
- ability to overcome the blood-brain barrier (rats; inferred from icv versus sc activity): only to a limited degree
- analgesic activity (in words) (rats; [5]): extremely active
- ED50 (μg/rat, icv) (rats; [5]): 0.22 μg/rat
- analgesic effect (in words) (rats; [4]): very high analgesic effect
- ED50 (rats; [4]): 16 µg/kg
- melting point: 178 to 181 °C

Structure (SMILES): C=CC[N@+]1(C)CC[C@]23c4c5ccc(O)c4O[C@H]2C(=O)CC[C@@]3(OC)[C@H]1C5.[I-] [Compound 43, (17S)-17-allyl-4,5α-epoxy-3-hydroxy-14β-methoxy-17-methyl-6-oxomorphinanium-iodide]
- Ki (μ-opioid receptors): 1.33 nM
- melting point: > 140 °C

Structure (SMILES): C[N@+]1(CC2CC2)CC[C@]23c4c5ccc(O)c4O[C@H]2C(=O)CC[C@@]3(OCCCc2ccccc2)[C@H]1C5.[I-] [Compound 48, (17R)-17-cyclopropylmethyl-4,5α-epoxy-3-hydroxy-17-methyl-6-oxo-14β-[(3-phenylpropyl)oxy]morphinanium-iodide]
- Ki (μ-opioid receptors): 0.93 nM
- antagonistic activity to μ-opioid receptors (in words) (μ-receptors; DAMGO): very high antagonistic activity
- melting point: 175 to 176 °C

Structure (SMILES): COc1ccc2c3c1O[C@H]1C(=O)CC[C@@]4(OCCCc5ccccc5)[C@@H](C2)[N@@+](C)(CC2CC2)CC[C@]314.[I-] [Compound 49, (17R)-17-cyclopropylmethyl-4,5α-epoxy-3-methoxy-17-methyl-6-oxo-14β-[(3-phenylpropyl)oxy]morphinanium-iodide]
- Ki (μ-opioid receptors): 1.78 nM
- melting point: 133 to 136 °C

Structure (SMILES): CN1CC[C@]23c4c5cccc4O[C@H]2C(=O)CC[C@@]3(OCCCc2ccccc2)[C@H]1C5 [Compound 53, 4,5α-epoxy-17-methyl-14β-[(3-phenylpropyl)oxy]morphinan-6-one]
- ED50 (mice [1]): 3 µg/kg
- ED50 (mice [2]): 0.4 µg/kg
- melting point: 105 to 109 °C

Structure (SMILES): O=C1CC[C@@]2(OCCCc3ccccc3)[C@H]3Cc4cccc5c4[C@@]2(CC[N@H+]3CC2CC2)[C@H]1O5.[Cl-] [Compound 54, 17-(cyclopropylmethyl)-4,5α-epoxy-14β-[(3-phenylpropyl)oxy]morphinan-6-one hydrochloride]
- Ki (μ-opioid receptors): 0.84 nM
- melting point: 145 to 150 °C

Structure (SMILES): O=C1CC[C@@]2(OCCCc3ccccc3)[C@H]3Cc4cccc(O)c4[C@@]2(CC[N@H+]3CC2CC2)C1.[Cl-] [Compound 55, 17-(cyclopropylmethyl)-4-hydroxy-14β-[(3-phenylpropyl)oxy]morphinan-6-one hydrochloride]
- Ki (μ-opioid receptors): 0.4 nM
- melting point: > 170 °C (dec.)

Structure (SMILES): COc1cccc2c1[C@]13CC[N@@H+](CC4CC4)[C@H](C2)[C@]1(OCCCc1ccccc1)CCC(=O)C3.[Cl-] [Compound 56, 17-(cyclopropylmethyl)-4-methoxy-14β-[(3-phenylpropyl)oxy]morphinan-6-one hydrochloride]
- Ki (μ-opioid receptors): 0.34 nM
- melting point: 121 to 126 °C

Structure (SMILES): CN1CC[C@]23c4c5ccc(O)c4O[C@H]2[C@@H](O)C=C[C@H]3[C@H]1C5 [Morphine, reference compound]
- ED50 (rats; [4]): 1900 µg/kg
